Source: US8802597B2, “Herbicidal pyrimidines” (E I du Pont de Nemours and Company, priority 2003, dated 2014)

Tests used:
Type in all cases: in vivo
[1] = test system: common chickweed (Stellaria media); assay: Test D pre/postemergence; conditions: scale 0 to 100 (100 = complete control)
From the text: (§1) Seeds of plant species selected from catchweed bedstraw (galium; Galium aparine), common chickweed (Stellaria media), kochia (Kochia scoparia), lambsquarters (Chenopodium album), pigweed (Amaranthus retroflexus), Russian thistle (Salsola kali), wild buckwheat (Polygonum convolvulus), wild mustard (Sinapis arvensis), winter barley (Hordeum vulgare), and wheat (Triticum aestivum) were planted and treated preemergence with test chemicals formulated in a non-phytotoxic solvent mixture which included a surfactant.
(§2) At the same time, plants selected from these crop and weed species were treated with postemergence applications of some of the test chemicals formulated in the same manner. Plants ranged in height from 2 to 18 cm (1- to 4-leaf stage) for postemergence treatments. Treated plants and controls were maintained in a controlled growth environment for 15 to 25 days after which time all species were compared to controls and visually evaluated. Plant response ratings, summarized in Table D, are based on a scale of 0 to 100 where 0 is no effect and 100 is complete control. A dash (-) response means no test result.

[2] = test system: pigweed (Amaranthus retroflexus); assay: Test D pre/postemergence; conditions: scale 0 to 100 (100 = complete control)
From the text: as §1, §2

[3] = test system: Italian ryegrass (Lolium multiflorum); assay: Test G pre/postemergence
In short: (§3)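 Pre- and postemergence greenhouse test; compound in non-phytotoxic solvent/surfactant mix. Post timing: 2–18 cm plants, 1- to 4-leaf. Visual rating vs controls at 12–21 d, 0 (no effect) to 100 (complete control).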

[4] = test system: Surinam grass (Brachiaria decumbens); assay: Test G pre/postemergence
In short: as §3

[5] = test system: annual bluegrass (Poa annua); assay: Test G pre/postemergence
In short: as §3

[6] = test system: barnyardgrass (Echinochloa crus-galli); assay: Test G pre/postemergence
In short: as §3

[7] = test system: bermudagrass (Cynodon dactylon); assay: Test G pre/postemergence
In short: as §3

[8] = test system: downy bromegrass (Bromus tectorum); assay: Test G pre/postemergence
In short: as §3

[9] = test system: field bindweed (Convolvulus arvensis); assay: Test G pre/postemergence
In short: as §3

[10] = test system: guineagrass (Panicum maximum); assay: Test G pre/postemergence
In short: as §3

[11] = test system: johnsongrass (Sorghum halepense); assay: Test G pre/postemergence; conditions: Preemergence, scale 0-100
In short: as §3

[12] = test system: tropical spiderwort (Commelina benghalensis); assay: Test G pre/postemergence
In short: as §3

[13] = Postemergence, 250 g ai/ha, scale 0 to 100
[14] = Postemergence, 16 g ai/ha, scale 0 to 100
[15] = Postemergence, 31 g ai/ha, scale 0 to 100
[16] = Postemergence, 62 g ai/ha, scale 0 to 100
[17] = Postemergence, 125 g ai/ha, scale 0 to 100
[18] = Preemergence, 16 g ai/ha, scale 0-100
[19] = Preemergence, 31 g ai/ha, scale 0-100
[20] = Preemergence, 62 g ai/ha, scale 0-100
[21] = Preemergence, 125 g ai/ha, scale 0-100
[22] = Preemergence, 250 g ai/ha, scale 0-100

COC(=O)c1nc(-c2ccc(Cl)cc2)nc(N)c1Cl [Compound 58, methyl 6-amino-5-chloro-2-(4-chlorophenyl)-4-pyrimidinecarboxylate]
Plant response rating, Chickweed ([1]; Preemergence, 62 g ai/ha): 60 | Plant response rating, Chickweed ([1]; Preemergence, 250 g ai/ha): 75 | Plant response rating, Chickweed ([1]; Preemergence, 500 g ai/ha): 100 | Plant response rating, Pigweed ([2]; Postemergence, 62 g ai/ha): 80 | Plant response rating, Pigweed ([2]; Postemergence, 125 g ai/ha): 100 | Plant response rating, Pigweed ([2]; Postemergence, 250 g ai/ha): 100 | Plant response rating, Pigweed ([2]; Postemergence, 500 g ai/ha): 100 | Plant response rating, Pigweed ([2]; Preemergence, 62 g ai/ha): 70 | Plant response rating, Pigweed ([2]; Preemergence, 125 g ai/ha): 100 | Plant response rating, Pigweed ([2]; Preemergence, 250 g ai/ha): 100 | Plant response rating, Pigweed ([2]; Preemergence, 500 g ai/ha): 100

COC(=O)c1nc(C2CC2)nc(N)c1Br [Compound 2, methyl 6-amino-5-bromo-2-cyclopropyl-4-pyrimidinecarboxylate]
Plant response rating, Chickweed ([1]; Postemergence, 16 g ai/ha): 60 | Plant response rating, Chickweed ([1]; Postemergence, 31 g ai/ha): 60 | Plant response rating, Chickweed ([1]; Postemergence, 62 g ai/ha): 85 | Plant response rating, Chickweed ([1]; Postemergence, 125 g ai/ha): 85 | Plant response rating, Chickweed ([1]; Preemergence, 16 g ai/ha): 60 | Plant response rating, Chickweed ([1]; Preemergence, 31 g ai/ha): 60 | Plant response rating, Chickweed ([1]; Preemergence, 62 g ai/ha): 75 | Plant response rating, Chickweed ([1]; Preemergence, 125 g ai/ha): 90 | Plant response rating, Pigweed ([2]; Postemergence, 16 g ai/ha): 65 | Plant response rating, Pigweed ([2]; Postemergence, 31 g ai/ha): 85 | Plant response rating, Pigweed ([2]; Postemergence, 62 g ai/ha): 100 | Plant response rating, Pigweed ([2]; Postemergence, 125 g ai/ha): 100 | Plant response rating, Pigweed ([2]; Preemergence, 16 g ai/ha): 65 | Plant response rating, Pigweed ([2]; Preemergence, 31 g ai/ha): 70 | Plant response rating, Pigweed ([2]; Preemergence, 62 g ai/ha): 85 | Plant response rating, Pigweed ([2]; Preemergence, 125 g ai/ha): 100

Nc1nc(C2CC2)nc(C=O)c1Br [Compound 26]
Plant response rating, Chickweed ([1]; Postemergence, 125 g ai/ha): 45 | Plant response rating, Chickweed ([1]; Postemergence, 250 g ai/ha): 55 | Plant response rating, Chickweed ([1]; Preemergence, 125 g ai/ha): 60 | Plant response rating, Chickweed ([1]; Preemergence, 250 g ai/ha): 65 | Plant response rating, Pigweed ([2]; Postemergence, 125 g ai/ha): 60 | Plant response rating, Pigweed ([2]; Postemergence, 250 g ai/ha): 70 | Plant response rating, Pigweed ([2]; Preemergence, 125 g ai/ha): 65 | Plant response rating, Pigweed ([2]; Preemergence, 250 g ai/ha): 100

Nc1nc(C2CC2)nc(C(=O)OCc2ccccc2)c1Br [Compound 22, phenylmethyl 6-amino-5-bromo-2-cyclopropyl-4-pyrimidinecarboxylate]
Plant response rating, Ryegrass, Italian [3, 13]: 85 | Plant response rating, Ryegrass, Italian [3, 14]: 0 | Plant response rating, Ryegrass, Italian [3, 15]: 5 | Plant response rating, Ryegrass, Italian [3, 16]: 15 | Plant response rating, Ryegrass, Italian [3, 17]: 40 | Plant response rating, Ryegrass, Italian [3, 18]: 0 | Plant response rating, Ryegrass, Italian [3, 19]: 0 | Plant response rating, Ryegrass, Italian [3, 20]: 0 | Plant response rating, Ryegrass, Italian [3, 21]: 0 | Plant response rating, Ryegrass, Italian [3, 22]: 50 | Plant response rating, Surinam Grass [4, 13]: 95 | Plant response rating, Surinam Grass [4, 14]: 0 | Plant response rating, Surinam Grass [4, 15]: 15 | Plant response rating, Surinam Grass [4, 16]: 35 | Plant response rating, Surinam Grass [4, 17]: 65 | Plant response rating, Surinam Grass [4, 18]: 0 | Plant response rating, Surinam Grass [4, 19]: 0 | Plant response rating, Surinam Grass [4, 20]: 0 | Plant response rating, Surinam Grass [4, 21]: 35 | Plant response rating, Surinam Grass [4, 22]: 90 | Plant response rating, Bluegrass [5, 13]: 75 | Plant response rating, Bluegrass [5, 14]: 0 | Plant response rating, Bluegrass [5, 15]: 0 | Plant response rating, Bluegrass [5, 16]: 15 | Plant response rating, Bluegrass [5, 17]: 40 | Plant response rating, Bluegrass [5, 18]: 0 | Plant response rating, Bluegrass [5, 19]: 0 | Plant response rating, Bluegrass [5, 20]: 0 | Plant response rating, Bluegrass [5, 21]: 30 | Plant response rating, Bluegrass [5, 22]: 60 | Plant response rating, Barnyardgrass [6, 13]: 85 | Plant response rating, Barnyardgrass [6, 14]: 0 | Plant response rating, Barnyardgrass [6, 15]: 0 | Plant response rating, Barnyardgrass [6, 16]: 15 | Plant response rating, Barnyardgrass [6, 17]: 25 | Plant response rating, Barnyardgrass [6, 18]: 10 | Plant response rating, Barnyardgrass [6, 19]: 20 | Plant response rating, Barnyardgrass [6, 20]: 30 | Plant response rating, Barnyardgrass [6, 21]: 70 | Plant response rating, Barnyardgrass [6, 22]: 80 | Plant response rating, Bermudagrass [7, 13]: 65 | Plant response rating, Bermudagrass [7, 14]: 15 | Plant response rating, Bermudagrass [7, 15]: 35 | Plant response rating, Bermudagrass [7, 16]: 35 | Plant response rating, Bermudagrass [7, 17]: 40 | Plant response rating, Bermudagrass [7, 18]: 0 | Plant response rating, Bermudagrass [7, 19]: 0 | Plant response rating, Bermudagrass [7, 20]: 0 | Plant response rating, Bermudagrass [7, 21]: 0 | Plant response rating, Bermudagrass [7, 22]: 30 | Plant response rating, Bromegrass, Downy [8, 13]: 95 | Plant response rating, Bromegrass, Downy [8, 14]: 15 | Plant response rating, Bromegrass, Downy [8, 15]: 65 | Plant response rating, Bromegrass, Downy [8, 16]: 85 | Plant response rating, Bromegrass, Downy [8, 17]: 95 | Plant response rating, Bromegrass, Downy [8, 18]: 0 | Plant response rating, Bromegrass, Downy [8, 19]: 0 | Plant response rating, Bromegrass, Downy [8, 20]: 0 | Plant response rating, Bromegrass, Downy [8, 21]: 20 | Plant response rating, Bromegrass, Downy [8, 22]: 75 | Plant response rating, Bindweed, Field [9, 13]: 100 | Plant response rating, Bindweed, Field [9, 14]: 85 | Plant response rating, Bindweed, Field [9, 15]: 100 | Plant response rating, Bindweed, Field [9, 16]: 100 | Plant response rating, Bindweed, Field [9, 17]: 100 | Plant response rating, Bindweed, Field [9, 18]: 65 | Plant response rating, Bindweed, Field [9, 19]: 75 | Plant response rating, Bindweed, Field [9, 20]: 90 | Plant response rating, Bindweed, Field [9, 21]: 90 | Plant response rating, Bindweed, Field [9, 22]: 100 | Plant response rating, Guineagrass [10, 13]: 100 | Plant response rating, Guineagrass [10, 14]: 5 | Plant response rating, Guineagrass [10, 15]: 55 | Plant response rating, Guineagrass [10, 16]: 65 | Plant response rating, Guineagrass [10, 17]: 95 | Plant response rating, Guineagrass [10, 18]: 0 | Plant response rating, Guineagrass [10, 19]: 35 | Plant response rating, Guineagrass [10, 20]: 75 | Plant response rating, Guineagrass [10, 21]: 90 | Plant response rating, Guineagrass [10, 22]: 95 | Plant response rating, Johnsongrass ([11]; 16 g ai/ha): 0 | Plant response rating, Johnsongrass ([11]; 31 g ai/ha): 0 | Plant response rating, Johnsongrass ([11]; 62 g ai/ha): 20 | Plant response rating, Johnsongrass ([11]; 125 g ai/ha): 50 | Plant response rating, Johnsongrass ([11]; 250 g ai/ha): 80 | Plant response rating, Spiderwort [12, 13]: 98 | Plant response rating, Spiderwort [12, 14]: 15 | Plant response rating, Spiderwort [12, 15]: 40 | Plant response rating, Spiderwort [12, 16]: 85 | Plant response rating, Spiderwort [12, 17]: 95 | Plant response rating, Spiderwort [12, 18]: 0 | Plant response rating, Spiderwort [12, 19]: 50 | Plant response rating, Spiderwort [12, 20]: 95 | Plant response rating, Spiderwort [12, 21]: 100 | Plant response rating, Spiderwort [12, 22]: 100
